In ChEMBL document CHEMBL1152961, “Synthesis and biological evaluation of novel carbon-11 labeled pyridyl ethers: candidate ligands for in vivo imaging of alpha4beta2 nicotinic acetylcholine receptors (alpha4beta2-nAChRs) in the brain with positron emission tomography” (Bioorg Med Chem, 2009):

Columns and labels:
[1] = Octanol-water partition coefficient, log D at pH 7.4 by shake flask method; format: physicochemical
[2] = target: Neuronal acetylcholine receptor subunit alpha-2 (Rattus norvegicus, UniProt P12389+P12390); assay: Displacement of [3H]epibatidine from rat alpha2beta2 nicotinic receptor expressed in human HEK293 cells by liquid scintillation counting; format: cell-based
Chain of Neuronal acetylcholine receptor subunit alpha-2 (P12389 whole entry, one chain of several): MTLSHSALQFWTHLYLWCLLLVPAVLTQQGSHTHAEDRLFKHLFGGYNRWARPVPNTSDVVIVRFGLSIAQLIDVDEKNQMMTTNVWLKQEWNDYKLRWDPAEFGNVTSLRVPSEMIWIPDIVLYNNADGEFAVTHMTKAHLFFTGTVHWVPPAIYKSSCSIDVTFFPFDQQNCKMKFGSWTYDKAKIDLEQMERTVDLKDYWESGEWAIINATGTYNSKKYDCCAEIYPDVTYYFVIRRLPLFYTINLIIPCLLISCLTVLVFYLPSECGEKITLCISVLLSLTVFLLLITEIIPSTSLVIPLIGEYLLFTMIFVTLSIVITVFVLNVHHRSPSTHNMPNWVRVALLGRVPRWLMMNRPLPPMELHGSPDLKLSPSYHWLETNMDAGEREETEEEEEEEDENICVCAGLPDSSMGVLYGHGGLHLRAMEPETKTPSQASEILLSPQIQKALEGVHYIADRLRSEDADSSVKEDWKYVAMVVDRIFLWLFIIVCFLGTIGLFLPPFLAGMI

[3] = target: Neuronal acetylcholine receptor; alpha3/beta2 (Rattus norvegicus, UniProt P04757+P12390); assay: Displacement of [3H]epibatidine from rat alpha3beta2 nicotinic receptor expressed in human HEK293 cells by liquid scintillation counting; format: cell-based
Chain of Neuronal acetylcholine receptor; alpha3/beta2 (P04757 whole entry): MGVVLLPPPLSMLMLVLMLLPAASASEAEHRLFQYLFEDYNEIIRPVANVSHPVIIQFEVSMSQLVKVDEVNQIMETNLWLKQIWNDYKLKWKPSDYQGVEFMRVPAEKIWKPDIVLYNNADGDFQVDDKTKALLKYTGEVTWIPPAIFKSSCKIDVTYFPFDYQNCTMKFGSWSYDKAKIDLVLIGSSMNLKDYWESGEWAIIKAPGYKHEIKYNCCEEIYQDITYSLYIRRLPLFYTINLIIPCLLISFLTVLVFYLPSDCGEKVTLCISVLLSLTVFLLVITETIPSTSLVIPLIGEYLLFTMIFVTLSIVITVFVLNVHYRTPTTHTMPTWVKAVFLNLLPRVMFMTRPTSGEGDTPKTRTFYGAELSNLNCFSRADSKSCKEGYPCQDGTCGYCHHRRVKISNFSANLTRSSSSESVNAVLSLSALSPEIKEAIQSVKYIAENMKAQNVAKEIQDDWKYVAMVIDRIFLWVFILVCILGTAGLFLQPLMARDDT
Chain of Neuronal acetylcholine receptor; alpha3/beta2 (P12390 whole entry): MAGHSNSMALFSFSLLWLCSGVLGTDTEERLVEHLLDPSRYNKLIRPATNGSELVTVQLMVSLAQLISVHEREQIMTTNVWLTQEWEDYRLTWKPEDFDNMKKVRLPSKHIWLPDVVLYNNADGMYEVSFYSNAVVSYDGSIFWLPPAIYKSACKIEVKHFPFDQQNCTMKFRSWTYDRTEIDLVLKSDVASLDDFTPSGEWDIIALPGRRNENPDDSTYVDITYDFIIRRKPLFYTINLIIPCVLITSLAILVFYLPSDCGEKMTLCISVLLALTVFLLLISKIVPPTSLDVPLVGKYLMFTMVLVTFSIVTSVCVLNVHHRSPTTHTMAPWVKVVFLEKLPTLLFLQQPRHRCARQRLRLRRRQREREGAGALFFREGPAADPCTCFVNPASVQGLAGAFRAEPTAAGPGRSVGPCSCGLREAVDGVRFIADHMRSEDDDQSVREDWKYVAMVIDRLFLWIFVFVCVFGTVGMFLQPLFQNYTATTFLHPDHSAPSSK

Rattus norvegicus = species on record: Rattus norvegicus; assay: Selectivity ratio of Ki for rat alpha3beta4 nicotinic receptor to Ki for rat alpha4beta2 nicotinic receptor
[4] = target: Neuronal acetylcholine receptor; alpha4/beta2 (Rattus norvegicus) (UniProt P09483+P12390); assay: Ratio of compound Ki to epibatidine Ki for rat alpha4beta2 nicotinic receptor expressed in human HEK293 cells; format: cell-based
[5] = target: Neuronal acetylcholine receptor; alpha2/beta4 (Rattus norvegicus, UniProt P12389+P12392); assay: Displacement of [3H]epibatidine from rat alpha2beta4 nicotinic receptor expressed in human HEK293 cells by liquid scintillation counting; format: cell-based
Chain of Neuronal acetylcholine receptor; alpha2/beta4 (P12389 whole entry): as the sequence (P12389 whole entry, one chain of several) above
Chain of Neuronal acetylcholine receptor; alpha2/beta4 (P12392 whole entry): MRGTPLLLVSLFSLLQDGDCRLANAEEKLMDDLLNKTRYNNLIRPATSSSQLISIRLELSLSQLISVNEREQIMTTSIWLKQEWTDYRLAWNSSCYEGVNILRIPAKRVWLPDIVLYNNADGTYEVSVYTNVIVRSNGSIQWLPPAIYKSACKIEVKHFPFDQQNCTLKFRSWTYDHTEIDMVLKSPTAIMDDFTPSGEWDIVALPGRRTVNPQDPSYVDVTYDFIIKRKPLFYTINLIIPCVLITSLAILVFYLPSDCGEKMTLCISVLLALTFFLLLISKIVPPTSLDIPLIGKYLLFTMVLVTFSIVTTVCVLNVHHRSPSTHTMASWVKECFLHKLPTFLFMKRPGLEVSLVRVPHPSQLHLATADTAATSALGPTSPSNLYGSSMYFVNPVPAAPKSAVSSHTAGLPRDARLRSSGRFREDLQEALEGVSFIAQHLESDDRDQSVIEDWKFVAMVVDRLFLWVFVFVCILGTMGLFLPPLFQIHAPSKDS

[6] = target: Neuronal acetylcholine receptor; alpha4/beta4 (Rattus norvegicus, UniProt P09483+P12392); assay: Displacement of [3H]epibatidine from rat alpha4beta4 nicotinic receptor expressed in human HEK293 cells by liquid scintillation counting; format: cell-based
Chain of Neuronal acetylcholine receptor; alpha4/beta4 (P09483 whole entry): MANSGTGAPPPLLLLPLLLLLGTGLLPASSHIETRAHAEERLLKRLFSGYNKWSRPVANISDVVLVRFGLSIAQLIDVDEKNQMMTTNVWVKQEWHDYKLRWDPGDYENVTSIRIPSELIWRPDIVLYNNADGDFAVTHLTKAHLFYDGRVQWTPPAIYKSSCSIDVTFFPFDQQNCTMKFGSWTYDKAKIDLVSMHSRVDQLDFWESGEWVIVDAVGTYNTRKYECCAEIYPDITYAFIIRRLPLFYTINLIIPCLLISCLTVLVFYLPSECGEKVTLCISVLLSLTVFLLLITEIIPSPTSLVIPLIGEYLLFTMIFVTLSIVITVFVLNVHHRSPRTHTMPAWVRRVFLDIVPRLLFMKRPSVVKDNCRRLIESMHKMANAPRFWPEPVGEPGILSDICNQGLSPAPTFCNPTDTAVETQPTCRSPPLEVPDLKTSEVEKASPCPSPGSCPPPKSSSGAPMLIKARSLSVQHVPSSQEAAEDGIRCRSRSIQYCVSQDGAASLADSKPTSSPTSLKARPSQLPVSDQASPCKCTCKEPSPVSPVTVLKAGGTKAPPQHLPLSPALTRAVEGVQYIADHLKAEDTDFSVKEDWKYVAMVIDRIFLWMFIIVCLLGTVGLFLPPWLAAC
Chain of Neuronal acetylcholine receptor; alpha4/beta4 (P12392 whole entry): as the sequence (P12392 whole entry) above

[7] = target: T1, Neuronal acetylcholine receptor; alpha4/beta2 (Rattus norvegicus, UniProt P09483+P12390); assay: Displacement of [3H]epibatidine from rat alpha4beta2 nicotinic receptor expressed in human HEK293 cells by liquid scintillation counting; format: cell-based
T1 sequence (P09483 whole entry): as the sequence (P09483 whole entry) above
T1 sequence (P12390 whole entry): as the sequence (P12390 whole entry) above

[8] = target: Neuronal acetylcholine receptor; alpha3/beta4 (Rattus norvegicus, UniProt P04757+P12392); assay: Displacement of [3H]epibatidine from rat alpha3beta4 nicotinic receptor expressed in human HEK293 cells by liquid scintillation counting; format: cell-based
Chain of Neuronal acetylcholine receptor; alpha3/beta4 (P04757 whole entry): as the sequence (P04757 whole entry) above
Chain of Neuronal acetylcholine receptor; alpha3/beta4 (P12392 whole entry): as the sequence (P12392 whole entry) above

[9] = Drug uptake in baboon brain thalamus assessed as binding potential at 17.5 mCi by bolus injection; format: ADME, organism-based; conditions: papio anubis, in vivo, iv
[10] = Ratio of drug uptake in thalamus to cerebellum of CD1 mouse at 0.07 mCi, iv after 45 mins; format: ADME, organism-based; conditions: in vivo, 0.75 h
[11] = Drug uptake in baboon brain thalamus assessed as binding potential at 31 mCi by bolus injection; format: ADME, organism-based; conditions: papio anubis, in vivo, iv
[12] = Drug uptake in baboon brain thalamus assessed as binding potential at 21 mCi by bolus injection; format: ADME, organism-based; conditions: papio anubis, in vivo, iv
[13] = target: T1, Neuronal acetylcholine receptor; alpha4/beta2; assay: Displacement of [125I]5-A-85380 from alpha4beta2 nicotinic receptor in rat brain; format: tissue-based

Structure (SMILES) | logD [1] | Ki [2] | Ki [3] | Ratio Ki (Rattus norvegicus) | Ratio Ki [4] | Ki [5] | Ki [6] | Ki [7] | Ki [8] | Drug uptake [9] | Ratio [10] | Drug uptake [11] | Drug uptake [12] | logD ([1]; read-out: logD) | Ki [13]
CN1CCC[C@H]1COc1cnc(Cl)c(OCc2ccnc(F)c2)c1 | 1.8 | 0.022 nM | 0.33 nM | 1450 | 1 | 11 nM | 1.6 nM | 0.062 nM | 90 nM |  |  |  |  |  | 
[11CH3]N1CCC[C@H]1COc1cnc(Cl)c(OCc2ccc(Cl)nc2)c1 |  |  |  |  |  |  |  |  |  | 0.7 | 3.8 | 0.7 | 0.7 |  | 
CN1CCC[C@H]1COc1cnc(Cl)c(/C=C/c2ccncc2)c1 |  |  |  |  | 2.8 |  |  |  |  |  |  |  |  |  | 
[11CH3]N1CCC[C@H]1COc1cnc(Cl)c(/C=C/c2ccncc2)c1 |  |  |  |  |  |  |  |  |  |  |  |  |  | 1.6 | 0.028 nM
Fc1ncccc1OC[C@@H]1CCN1 |  | 1.4 nM | 3 nM |  |  | 180 nM |  |  | 3700 nM |  |  |  |  |  | 
CN1CCC[C@H]1COc1cnc(Cl)c(OCc2ccc(Cl)nc2)c1 |  | 0.031 nM | 0.26 nM | 5820 | 0.9 | 14 nM | 6.6 nM | 0.055 nM | 320 nM |  |  |  |  |  | 
Fc1cc(COc2cc(OC[C@@H]3CCCN3)cnc2Cl)ccn1 | 1.4 | 0.035 nM | 0.25 nM | 331 | 2.1 | 8.2 nM | 1.1 nM | 0.13 nM | 43 nM |  |  |  |  |  | 
CN1CCC[C@@H]1COc1cnc(Cl)c(OCc2ccc(Cl)nc2)c1 | 2.2 | 1.5 nM | 0.85 nM | 318 | 18 | 22 nM | 7.6 nM | 1.1 nM | 350 nM |  |  |  |  |  | 
[11CH3]N1CCC[C@H]1COc1cnc(Cl)c(-c2ccnc(F)c2)c1 |  |  |  |  |  |  |  |  |  | 0.7 |  | 0.7 | 0.7 |  | 
CN1CCC[C@H]1COc1cnc(Cl)c(-c2ccnc(F)c2)c1 | 1.6 | 0.05 nM | 0.71 nM | 9520 | 1 | 27 nM | 16 nM | 0.062 nM | 590 nM |  |  |  |  |  | 
